Earlier results in patent US9062086B2, “N-acetyl L-cysteine chelates and methods for making and using the same” (Viva Pharmaceutical, Inc., priority 2013, dated 2015).

Tests used:
[1] = molecular target: c-Glutamylcysteine synthetase (Homo sapiens, UniProt P48506); conditions: read-out: Ki (feedback inhibition by GSH); background statement
[2] = much higher than NAC; background statement

Sequence of c-Glutamylcysteine synthetase (P48506 whole entry): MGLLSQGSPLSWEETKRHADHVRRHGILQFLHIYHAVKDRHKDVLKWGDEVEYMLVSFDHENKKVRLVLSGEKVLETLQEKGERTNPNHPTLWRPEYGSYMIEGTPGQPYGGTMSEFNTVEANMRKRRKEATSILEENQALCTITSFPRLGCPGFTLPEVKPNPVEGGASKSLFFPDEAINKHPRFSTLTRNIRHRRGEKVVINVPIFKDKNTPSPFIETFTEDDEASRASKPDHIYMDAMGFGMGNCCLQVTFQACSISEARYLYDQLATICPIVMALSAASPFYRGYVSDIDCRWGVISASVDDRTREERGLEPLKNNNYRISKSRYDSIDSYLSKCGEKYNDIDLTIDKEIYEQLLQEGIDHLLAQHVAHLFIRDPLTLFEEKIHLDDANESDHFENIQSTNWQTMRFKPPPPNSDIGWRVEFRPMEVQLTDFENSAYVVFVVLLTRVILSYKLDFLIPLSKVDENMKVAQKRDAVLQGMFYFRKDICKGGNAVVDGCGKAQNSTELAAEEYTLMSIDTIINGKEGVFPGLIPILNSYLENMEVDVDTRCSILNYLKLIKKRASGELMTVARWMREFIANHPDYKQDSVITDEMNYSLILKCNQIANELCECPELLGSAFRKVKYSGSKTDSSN

| Ki [1] [mM] | bioavailability [2] | Compound |
| --- | --- | --- |
| ~1.5 |  | N[C@@H](CCC(=O)N[C@@H](CS)C(=O)NCC(=O)O)C(=O)O [GSH, glutathione] |
|  | around 60% | CCOC(=O)[C@H](CS)NC(C)=O [NACET, N-acetylcysteine ethyl ester] |
